Values of other authors in paper PMC6172068 (Cancer Science, 2018).

Experiments:
AML [1] = details: single agent; cited from earlier work
[2] = system: FLT3 mutation-positive R/R AML; details: cited from earlier work
AML [3] = details: sorafenib plus intensive chemotherapy, patients aged <60 years; cited from earlier work

CO[C@@H]1[C@H](N(C)C(=O)c2ccccc2)C[C@H]2O[C@]1(C)n1c3ccccc3c3c4c(c5c6ccccc6n2c5c31)C(=O)NC4 [midostaurin]
CR (AML [1]): not achieved

CC1(COc2ccc3c(c2)ncn3-c2ccc3cccc(N4CCC(N)CC4)c3n2)COC1 [crenolanib]
antileukemic activity [2]: strong antileukemic activity

CNC(=O)c1cc(Oc2ccc(NC(=O)Nc3ccc(Cl)c(C(F)(F)F)c3)cc2)ccn1 [sorafenib]
3-year event-free survival rate (AML [3]): 40%
